Measurements from ChEMBL document CHEMBL1129020, “Synthesis and protein kinase C inhibitory activities of indane analogs of balanol” (Bioorg Med Chem Lett, 1996).

What was measured:
[1] = molecular target: T1, Protein kinase C beta type (Homo sapiens, UniProt P05771); assay: Inhibition of protein kinase C beta 1
[2] = molecular target: Protein kinase C alpha type (Homo sapiens, UniProt P17252); assay: Inhibition of protein kinase C alpha
[3] = molecular target: cAMP-dependent protein kinase (PKA) (Homo sapiens, UniProt P22694+P17612+P22612); assay: Inhibition of cAMP-dependent protein kinase (PKA); format: protein assay
[4] = molecular target: T2, Protein kinase C epsilon type (Homo sapiens, UniProt Q02156); assay: Inhibition of protein kinase C epsilon
T2 sequence (Q02156 whole entry): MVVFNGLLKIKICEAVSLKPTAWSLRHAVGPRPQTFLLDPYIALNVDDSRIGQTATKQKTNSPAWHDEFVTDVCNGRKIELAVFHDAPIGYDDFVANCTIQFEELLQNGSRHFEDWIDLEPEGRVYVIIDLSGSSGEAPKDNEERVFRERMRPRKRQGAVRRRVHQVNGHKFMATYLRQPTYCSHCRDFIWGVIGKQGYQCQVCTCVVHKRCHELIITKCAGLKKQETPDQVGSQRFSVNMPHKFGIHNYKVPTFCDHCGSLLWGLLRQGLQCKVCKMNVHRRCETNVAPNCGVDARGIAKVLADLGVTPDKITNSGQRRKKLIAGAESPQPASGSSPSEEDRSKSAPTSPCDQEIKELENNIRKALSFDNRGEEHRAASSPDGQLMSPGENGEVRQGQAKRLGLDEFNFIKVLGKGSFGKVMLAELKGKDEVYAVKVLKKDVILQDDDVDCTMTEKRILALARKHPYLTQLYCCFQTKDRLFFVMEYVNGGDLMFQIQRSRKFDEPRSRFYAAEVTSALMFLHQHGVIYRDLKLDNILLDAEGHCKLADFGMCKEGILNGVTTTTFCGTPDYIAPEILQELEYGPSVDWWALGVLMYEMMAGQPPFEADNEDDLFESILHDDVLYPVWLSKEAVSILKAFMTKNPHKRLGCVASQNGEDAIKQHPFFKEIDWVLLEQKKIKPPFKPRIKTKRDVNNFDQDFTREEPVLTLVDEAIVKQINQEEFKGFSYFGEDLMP

[5] = molecular target: T3, Protein kinase C gamma type (Homo sapiens, UniProt P05129); assay: Inhibition of protein kinase C gamma
[6] = molecular target: T1, Protein kinase C beta type; assay: Inhibition of protein kinase C beta II
[7] = molecular target: T4, Protein kinase C delta type (Homo sapiens, UniProt Q05655); assay: Inhibition of protein kinase C delta
[8] = molecular target: T5, Protein kinase C eta type (Homo sapiens, UniProt P24723); assay: Inhibition of protein kinase C eta
[9] = molecular target: T1, Protein kinase C beta type; assay: Inhibition of Protein kinase C beta 2
[10] = molecular target: T3, Protein kinase C gamma type; assay: Inhibition of Protein kinase C gamma
[11] = molecular target: T5, Protein kinase C eta type; assay: Inhibition of Protein kinase C eta
[12] = molecular target: T1, Protein kinase C beta type; assay: Inhibition of Protein kinase C beta 1
[13] = molecular target: T4, Protein kinase C delta type; assay: Inhibition of Protein kinase C delta

T1 sequence (P05771 whole entry): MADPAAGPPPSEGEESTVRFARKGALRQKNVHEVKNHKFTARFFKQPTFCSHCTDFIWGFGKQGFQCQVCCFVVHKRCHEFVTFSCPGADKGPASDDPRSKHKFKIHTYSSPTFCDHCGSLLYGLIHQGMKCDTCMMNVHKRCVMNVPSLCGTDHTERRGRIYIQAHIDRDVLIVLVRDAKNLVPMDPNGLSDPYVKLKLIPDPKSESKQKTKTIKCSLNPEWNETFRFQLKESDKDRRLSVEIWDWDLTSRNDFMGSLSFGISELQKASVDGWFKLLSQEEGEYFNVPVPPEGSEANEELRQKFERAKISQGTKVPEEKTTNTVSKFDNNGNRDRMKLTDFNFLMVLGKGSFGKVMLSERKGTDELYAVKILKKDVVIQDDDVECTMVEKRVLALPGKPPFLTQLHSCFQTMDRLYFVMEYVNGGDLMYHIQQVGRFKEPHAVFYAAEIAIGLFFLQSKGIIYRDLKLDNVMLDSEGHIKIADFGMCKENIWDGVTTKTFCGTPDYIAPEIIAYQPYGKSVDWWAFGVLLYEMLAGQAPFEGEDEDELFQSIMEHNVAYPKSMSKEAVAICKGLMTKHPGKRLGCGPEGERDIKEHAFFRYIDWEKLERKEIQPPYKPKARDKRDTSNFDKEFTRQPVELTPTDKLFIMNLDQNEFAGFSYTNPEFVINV
T4 sequence (Q05655 whole entry): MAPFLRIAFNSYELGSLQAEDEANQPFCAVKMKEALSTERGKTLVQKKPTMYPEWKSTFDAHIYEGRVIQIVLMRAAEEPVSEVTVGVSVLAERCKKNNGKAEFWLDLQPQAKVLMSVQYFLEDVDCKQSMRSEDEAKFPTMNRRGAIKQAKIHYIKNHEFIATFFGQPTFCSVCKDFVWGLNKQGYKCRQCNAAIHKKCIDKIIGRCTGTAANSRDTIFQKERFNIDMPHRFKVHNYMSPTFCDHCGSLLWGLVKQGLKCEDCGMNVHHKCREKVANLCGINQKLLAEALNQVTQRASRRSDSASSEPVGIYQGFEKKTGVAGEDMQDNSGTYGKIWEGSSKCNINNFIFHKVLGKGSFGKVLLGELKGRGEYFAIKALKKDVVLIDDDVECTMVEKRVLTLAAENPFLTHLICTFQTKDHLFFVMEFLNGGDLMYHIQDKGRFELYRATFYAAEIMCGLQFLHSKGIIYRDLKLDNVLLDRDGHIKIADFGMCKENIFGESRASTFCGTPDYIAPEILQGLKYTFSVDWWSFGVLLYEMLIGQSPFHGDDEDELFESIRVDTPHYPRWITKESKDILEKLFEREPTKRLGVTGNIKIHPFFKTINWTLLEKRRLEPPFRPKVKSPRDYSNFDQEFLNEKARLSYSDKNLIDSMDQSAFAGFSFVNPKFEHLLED
T5 sequence (P24723 whole entry): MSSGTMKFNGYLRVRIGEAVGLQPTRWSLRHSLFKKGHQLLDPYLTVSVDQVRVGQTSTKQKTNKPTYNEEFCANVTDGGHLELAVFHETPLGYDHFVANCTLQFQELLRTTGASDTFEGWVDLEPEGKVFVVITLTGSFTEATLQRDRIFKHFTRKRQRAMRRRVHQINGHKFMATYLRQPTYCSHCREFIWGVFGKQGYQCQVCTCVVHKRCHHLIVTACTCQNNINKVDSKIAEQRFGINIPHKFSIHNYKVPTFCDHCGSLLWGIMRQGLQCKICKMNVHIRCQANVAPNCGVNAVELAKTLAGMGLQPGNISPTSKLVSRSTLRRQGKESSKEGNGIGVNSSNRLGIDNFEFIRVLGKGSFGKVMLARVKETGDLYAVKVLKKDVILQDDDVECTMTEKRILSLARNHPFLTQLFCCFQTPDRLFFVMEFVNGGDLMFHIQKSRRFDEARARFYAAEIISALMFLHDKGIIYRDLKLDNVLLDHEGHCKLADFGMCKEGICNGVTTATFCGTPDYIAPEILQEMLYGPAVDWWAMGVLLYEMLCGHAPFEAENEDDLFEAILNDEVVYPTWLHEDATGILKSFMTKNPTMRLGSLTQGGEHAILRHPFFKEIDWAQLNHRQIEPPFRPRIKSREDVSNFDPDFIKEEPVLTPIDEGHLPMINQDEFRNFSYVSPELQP

O=C(N[C@@H]1CNCC1OC(=O)c1cc(O)c(C(=O)c2c(O)cccc2C(=O)O)c(O)c1)c1ccc(O)cc1 (stereo not given in full)
IC50 [1]: 10 nM
IC50 [2]: 22 nM
IC50 [3]: 70 nM
IC50 [4]: 10 nM
IC50 [5]: 12 nM
IC50 [6]: 33 nM
IC50 [7]: 5 nM
IC50 [8]: 4 nM

O=C(N[C@@H]1Cc2ccccc2C1OC(=O)c1cc(O)c(C(=O)c2c(O)cccc2C(=O)O)c(O)c1)c1ccc(O)cc1 (mixture of isomers)
IC50 [1]: < 29 nM
IC50 [2]: 70 nM
IC50 [4]: 480 nM
IC50 [5]: < 30 nM
IC50 [6]: < 25 nM
IC50 [7]: < 25 nM
IC50 [8]: < 25 nM

O=C(NC1CNCCCC1OC(=O)c1cc(O)c(C(=O)c2c(O)cccc2C(=O)O)c(O)c1)c1ccc(O)cc1 (racemic)
IC50 [2]: 370 nM
IC50 [9]: 260 nM
IC50 [10]: 140 nM
IC50 [11]: < 100 nM
IC50 [12]: 80 nM
IC50 [13]: 50 nM

O=C(N[C@@H]1c2ccccc2C[C@@H]1OC(=O)c1cc(O)c(C(=O)c2c(O)cccc2C(=O)O)c(O)c1)c1ccc(O)cc1
IC50 [1]: 60 nM
IC50 [2]: 290 nM
IC50 [3]: 50000 nM
IC50 [4]: 1900 nM
IC50 [5]: 50 nM
IC50 [6]: 50 nM
IC50 [7]: 50 nM
IC50 [8]: < 50 nM

O=C(N[C@@H]1CCCC1OC(=O)c1cc(O)c(C(=O)c2c(O)cccc2C(=O)O)c(O)c1)c1ccc(O)cc1 (stereo not given in full)
IC50 [1]: 40 nM
IC50 [2]: 40 nM
IC50 [4]: 50 nM
IC50 [5]: 10 nM
IC50 [6]: 50 nM
IC50 [7]: 0.9 nM
IC50 [8]: 0.6 nM

O=C(N[C@H]1CNCCCC1OC(=O)c1cc(O)c(C(=O)c2c(O)cccc2C(=O)O)c(O)c1)c1ccc(O)cc1 (stereo not given in full)
IC50 [2]: 3000 nM
IC50 [9]: 880 nM
IC50 [10]: 400 nM
IC50 [11]: 260 nM
IC50 [12]: 500 nM
IC50 [13]: 420 nM

O=C(N[C@@H]1CNCCCC1OC(=O)c1cc(O)c(C(=O)c2c(O)cccc2C(=O)O)c(O)c1)c1ccc(O)cc1 (stereo not given in full)
IC50 [2]: 30 nM
IC50 [9]: 10 nM
IC50 [10]: 10 nM
IC50 [11]: 3 nM
IC50 [12]: 10 nM
IC50 [13]: 4 nM

O=C(N[C@H]1c2ccccc2CC1OC(=O)c1cc(O)c(C(=O)c2c(O)cccc2C(=O)O)c(O)c1)c1ccc(O)cc1 (mixture of isomers)
IC50 [1]: 37000 nM
IC50 [2]: > 50000 nM
IC50 [3]: > 100000 nM
IC50 [4]: 25000 nM
IC50 [5]: 34000 nM
IC50 [6]: 37000 nM
IC50 [7]: 21000 nM

O=C(N[C@@H]1c2ccccc2C[C@H]1OC(=O)c1cc(O)c(C(=O)c2c(O)cccc2C(=O)O)c(O)c1)c1ccc(O)cc1
IC50 [1]: > 50000 nM
IC50 [2]: > 50000 nM
IC50 [4]: > 50000 nM
IC50 [5]: 32000 nM
IC50 [6]: 39000 nM
IC50 [7]: 32000 nM
IC50 [8]: 35000 nM

O=C(N[C@@H]1c2ccccc2CC1OC(=O)c1cc(O)c(C(=O)c2c(O)cccc2C(=O)O)c(O)c1)c1ccc(O)cc1 (mixture of isomers)
IC50 [1]: 200 nM
IC50 [2]: 160 nM
IC50 [3]: 50000 nM
IC50 [4]: 310 nM
IC50 [5]: 160 nM
IC50 [6]: 170 nM
IC50 [7]: 30 nM
IC50 [8]: < 10 nM
